Data on three compounds can be found in US20160355530A1, “HEPATITIS C INHIBITORS AND USES THEREOF” (AbbVie Inc., priority 2010, published 2016).

Experiment [1] deals with chimeric replicon with genotype 3a NS5B. In words: microbe, parasite or virus in culture. The format is cell-based, HCV genotype 3a. To be noted: Hepatitis C virus, read-out: 3a chimera 5% FBS EC50.
In experiment [2] the test system is chimeric replicon with genotype 2b NS5B. As to the kind of experiment: microbe, parasite or virus in culture. It is filed as cell-based, HCV genotype 2b. To be noted: Hepatitis C virus, read-out: 2b chimera 5% FBS EC50.
Experiment [3] concerns chimeric replicon with 2a-J6CF-derived NS5B. As to the kind of experiment: microbe, parasite or virus in culture. The format is cell-based, HCV genotype 2a. To be noted: Hepatitis C virus, read-out: 2a chimera 5% FBS EC50.
Experiment [4] has as its system chimeric replicon with genotype 4a NS5B. As to the kind of experiment: microbe, parasite or virus in culture. To be noted: Hepatitis C virus, read-out: 4a chimera 5% FBS EC50. The format is cell-based, HCV genotype 4a.
In experiment [5] the test system is HCV 1a-H77 transient subgenomic replicon in Huh-7 derived cell line. As to the kind of experiment: microbe, parasite or virus in culture. It is filed as cell-based, HCV genotype 1a. To be noted: Hepatitis C virus, Huh-7; transient replicon, 5% FBS; read-out: Transient Replicon 1a H77 5% FBS EC50. The method in brief:
(§1)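 Subgenomic replicon RNA (no Neo gene) electroporated into Huh-7-derived cells, plated at 5×10^3 cells/well; a 4 h plate gauged transfection efficiency. Cells exposed to 3-fold compound dilutions (0.5% DMSO) for 4 days at 37° C, then lysed for luciferase readout; EC50 calculated.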
(Replicon systems follow genome replication, usually without infectious particles.)

In experiment [6] the test system is HCV 1a-H77-C316Y transient subgenomic replicon in Huh-7 derived cell line. In words: microbe, parasite or virus in culture. It is filed as cell-based, HCV genotype 1a. To be noted: for pEC50: Hepatitis C virus, Huh-7, read-out: Transient Replicon 1a H77-C316Y 5% FBS EC50; for Transient Replicon Fold Resistance C316Y/1a: ratio of transient replicon EC50s, C316Y / 1a H77. The method in brief: as §1

For experiment [7], the system named is HCV 1a-H77 subgenomic replicon. As to the kind of experiment: microbe, parasite or virus in culture. To be noted: Hepatitis C virus, stable replicon. The format is cell-based, HCV genotype 1a.
In experiment [8] the test system is HCV 1b-BB7 subgenomic replicon. In words: microbe, parasite or virus in culture. The format is cell-based, HCV genotype 1b. To be noted: Hepatitis C virus, stable replicon.
For experiment [9], the target named is T1, HCV NS5B polymerase 1b BK strain (Hepatitis C virus genotype 1b, UniProt P26663).
T1 construct: six-histidine tag; made in house; host or cells: E. coli
In words: HCV NS5B polymerase enzymatic inhibition assay, strain 1b BK. It is filed as biochemical. To be noted: enzyme, strain 1b BK; read-out: HCV Polymerase Strain 1b BK IC50. Put shortly: (§2)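 Recombinant NS5B (residues 1–570, His-tagged, E. coli-expressed) copied 5 nM of a 2.1 kb HCV 1b negative-strand 3′-end RNA template with 20 μM CTP, 20 μM ATP and 0.284 μM [3H]UTP for 3 h at 30 °C. Spermine-precipitated RNA was filter-captured and counted, and IC50 was fitted by nonlinear regression.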

For experiment [10], the target named is T2, HCV NS5B polymerase 1a-H77-C316Y (Hepatitis C virus genotype 1a, UniProt P27958, C2736Y).
T2 construct: six-histidine tag; made in house; host or cells: E. coli
In words: biochemical. More on the design: species or system HCV genotype 1a. The method in brief: as §2

The target of experiment [11] is T3, HCV NS5B polymerase 1a-H77 (Hepatitis C virus genotype 1a, UniProt P27958).
T3 construct: six-histidine tag; made in house; host or cells: E. coli
In words: biochemical. The arrangement: species or system HCV genotype 1a. To be noted: enzyme, strain 1a H77; read-out: HCV Polymerase Strain 1a H77 IC50. Put shortly: as §2

For experiment [12], the system named is HCV NS5B polymerase 1a-H77-C316Y. As to the kind of experiment: biochemical. More on the design: species or system HCV genotype 1a. To be noted: ratio of enzyme IC50s, 1a H77-C316Y / 1a H77. The method in brief:
as §2

Where [13] appears, read: 5% FBS, absence of human plasma, read-out: Stable Replicon 1a H77 5% FBS EC50.
The mark [14] stands for this setting: strain 1a H77, 5% FBS + 40% human plasma, read-out: 1a H77 5% FBS + 40% Human Plasma EC50.
[15] abbreviates: strain 1a H77, 5% FBS, no human plasma, read-out: 1a H77 5% FBS EC50.
The mark [16] stands for this setting: strain 1a H77, 5% FBS, read-out: 1a H77 5% FBS EC50.
[17] abbreviates: strain 1b BB7, 5% FBS + 40% human plasma, read-out: 1b BB7 5% FBS + 40% Human Plasma EC50.
The mark [18] stands for this setting: strain 1b BB7, 5% FBS, no human plasma, read-out: 1b BB7 5% FBS EC50.
Where [19] appears, read: strain 1b BB7, 5% FBS, read-out: 1b BB7 5% FBS EC50.

Structures are written as SMILES. pEC50, pIC50: −log10 of the molar value. Read-outs that look alike come from different tables or passages of the source.

T2 sequence (P27958 2421-2990 C2736Y): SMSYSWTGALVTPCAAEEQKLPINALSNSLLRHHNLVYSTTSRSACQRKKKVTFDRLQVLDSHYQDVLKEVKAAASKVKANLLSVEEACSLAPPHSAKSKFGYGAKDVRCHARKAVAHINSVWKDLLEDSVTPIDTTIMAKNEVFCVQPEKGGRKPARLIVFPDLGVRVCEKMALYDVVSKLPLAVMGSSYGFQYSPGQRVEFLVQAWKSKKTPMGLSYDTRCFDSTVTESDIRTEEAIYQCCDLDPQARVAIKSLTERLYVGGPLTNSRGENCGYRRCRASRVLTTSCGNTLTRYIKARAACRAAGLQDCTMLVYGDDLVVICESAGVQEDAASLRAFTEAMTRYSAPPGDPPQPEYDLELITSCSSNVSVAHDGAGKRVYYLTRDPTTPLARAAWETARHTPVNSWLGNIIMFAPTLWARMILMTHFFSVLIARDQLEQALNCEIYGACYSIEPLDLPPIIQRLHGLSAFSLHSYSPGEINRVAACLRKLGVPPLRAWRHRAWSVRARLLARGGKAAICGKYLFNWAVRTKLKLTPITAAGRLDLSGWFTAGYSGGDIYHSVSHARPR
T3 sequence (P27958 2421-2990): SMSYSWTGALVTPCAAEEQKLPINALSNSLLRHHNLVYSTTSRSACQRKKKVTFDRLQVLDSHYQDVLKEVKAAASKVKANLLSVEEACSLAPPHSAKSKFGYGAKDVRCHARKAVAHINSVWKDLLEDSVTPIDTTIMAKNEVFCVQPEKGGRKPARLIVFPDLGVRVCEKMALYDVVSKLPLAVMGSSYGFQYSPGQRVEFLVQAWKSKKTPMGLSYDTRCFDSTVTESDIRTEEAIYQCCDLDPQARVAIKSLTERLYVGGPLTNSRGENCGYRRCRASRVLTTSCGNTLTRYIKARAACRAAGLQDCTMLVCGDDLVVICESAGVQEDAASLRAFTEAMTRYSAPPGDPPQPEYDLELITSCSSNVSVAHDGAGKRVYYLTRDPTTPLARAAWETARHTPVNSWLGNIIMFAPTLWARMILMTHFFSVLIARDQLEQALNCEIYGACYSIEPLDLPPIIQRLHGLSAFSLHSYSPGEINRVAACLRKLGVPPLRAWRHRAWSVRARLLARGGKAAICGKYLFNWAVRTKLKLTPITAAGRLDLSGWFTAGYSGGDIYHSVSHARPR
T1 sequence (P26663 2420-2989): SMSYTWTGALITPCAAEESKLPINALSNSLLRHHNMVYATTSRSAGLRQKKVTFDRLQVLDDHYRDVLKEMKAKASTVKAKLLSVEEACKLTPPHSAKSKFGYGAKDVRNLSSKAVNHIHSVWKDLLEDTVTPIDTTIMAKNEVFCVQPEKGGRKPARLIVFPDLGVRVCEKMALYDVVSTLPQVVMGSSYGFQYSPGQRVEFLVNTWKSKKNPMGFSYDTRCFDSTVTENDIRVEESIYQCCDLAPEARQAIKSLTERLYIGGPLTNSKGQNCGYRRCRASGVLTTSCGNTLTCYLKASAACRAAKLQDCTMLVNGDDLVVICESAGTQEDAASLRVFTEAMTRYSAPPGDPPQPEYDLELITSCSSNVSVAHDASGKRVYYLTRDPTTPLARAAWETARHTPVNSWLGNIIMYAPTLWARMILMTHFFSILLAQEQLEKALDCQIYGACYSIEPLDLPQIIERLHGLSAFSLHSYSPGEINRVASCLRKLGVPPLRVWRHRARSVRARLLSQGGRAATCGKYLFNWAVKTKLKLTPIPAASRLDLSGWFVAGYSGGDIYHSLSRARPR

For `CS(=O)(=O)N(CCCN1CCS(=O)(=O)CC1)c1cc2oc(-c3ccc(F)cc3)c(C3=NOCCN3)c2cc1C1CC1` [Example 114, N-[5-cyclopropyl-3-(5,6-dihydro-4H-1,2,4-oxadiazin-3-yl)-2-(4-fluorophenyl)-1-benzofuran-6-yl]-N-[3-(1,1-dioxidothiomorpholin-4-yl)propyl]methanesulfonamide], the pEC50 (in general, the EC50 on a negative log10 scale, so that one unit is a factor of ten) in experiment [1] was 7.25; in experiment [2] it was 6.48; in experiment [3] it was 6.52; in [4], 6.51; in [5], 7.66; in experiment [6], 6.62. In addition, the pEC50 in experiment [7] (setting [13]) is 7.57; in experiment [7] (setting [14]), 6.39; in experiment [7] (setting [15]), 7.57; in experiment [7] (setting [16]), 7.57; in experiment [8] (setting [17]), 6.42; in [8] (setting [18]), 7.48. Also, the pEC50 in [8] (setting [19]) was 7.48. Besides, the “Transient Replicon Fold Resistance C316Y/1a” value in experiment [6] came to 11 fold. Also, the figures for the pIC50 in [9], in experiment [10] and in experiment [11] were 7.37, 7.15 and 8.15, respectively. In addition, the “C316Y/1a Fold Resistance” value in experiment [12] was determined as 10 fold.
`CS(=O)(=O)CCN(c1cc2oc(-c3ccc(F)cc3)c(C3=NOCCN3)c2cc1C1CC1)S(C)(=O)=O` [Example 9, N-[5-cyclopropyl-3-(5,6-dihydro-4H-1,2,4-oxadiazin-3-yl)-2-(4-fluorophenyl)-1-benzofuran-6-yl]-N-[2-(methylsulfonyl)ethyl]methanesulfonamide]: the pEC50 was 7.65 in experiment [1]; 6.53 in experiment [2]; 6.53 in experiment [3]; 6.90 in experiment [4]; 8.11 in experiment [5]; 7.24 in [6]. Further, the pEC50 in experiment [7] (setting [13]) was 8.08; in experiment [7] (setting [14]), 7.17; in experiment [7] (setting [15]), 8.08; in [7] (setting [16]) it was 8.08; in experiment [8] (setting [17]), 6.86; in experiment [8] (setting [18]), 7.82. Also, the negative-log EC50 (pEC50) in experiment [8] (setting [19]) was 7.82. For the same compound, the “Transient Replicon Fold Resistance C316Y/1a” value in experiment [6] came to 7 fold. The pIC50 – broadly, the IC50 on a negative log10 scale, so that one unit is a factor of ten – in experiment [9] is 7.47; in [10], 7.52; in experiment [11], 8.41. The “C316Y/1a Fold Resistance” value in [12] worked out at 8 fold.
With `CNS(=O)(=O)CCCN(c1cc2oc(-c3ccc(F)cc3)c(-c3ncc[nH]3)c2cc1C1CC1)S(C)(=O)=O` [Example 86, 3-{[5-cyclopropyl-2-(4-fluorophenyl)-3-(1H-imidazol-2-yl)-1-benzofuran-6-yl](methylsulfonyl)amino}-N-methylpropane-1-sulfonamide], the pEC50 in experiment [1] was 7.94; in [2] it was 6.86; in experiment [3], 7.19; in [4], 6.97; in [5], 8.55; in experiment [6] it was 7.04. For the same compound, the negative logarithm of the EC50 (pEC50) in experiment [7] (setting [13]) is 7.91; in [7] (setting [14]), 7.07; in experiment [7] (setting [15]), 7.91; in experiment [7] (setting [16]), 7.91; in experiment [8] (setting [17]), 7.39; in [8] (setting [18]) it was 8.17. The pEC50 in experiment [8] (setting [19]) was 8.17. Further, in experiment [6], the “Transient Replicon Fold Resistance C316Y/1a” value is on record as 33 fold. Moreover, the pIC50 in experiment [9] was 7.74; in experiment [10], 7.25; in experiment [11], 8.30. Also, in experiment [12], the “C316Y/1a Fold Resistance” value was found to be 11 fold.
